Test results taken from patent US7067112B2, “Cephaibols: novel antiparasitics from Acremonium tubakii, process for their production, and use thereof” (Sanofi-Aventis Deutschland GmbH, priority 1999, dated 2006).
Square brackets hold non-standard residues; d marks the D form. Peptide text beside a SMILES is read from it. Hyp = O=C(O)[CH]1C[CH](O)CN1; Phe(ol) = N[CH](CO)Cc1ccccc1; Iva = CC[C](C)(N)C(=O)O; Aib = CC(C)(N)C(=O)O

Columns and labels:
[1] = solubility (physicochemical properties)
Text: (§1) The physicochemical and spectroscopic properties of the cephaibols according to the invention can be summarized as follows: […]

[2] = stability (physicochemical properties); conditions: in neutral, mildly acidic and mildly alkaline medium
Text: as §1

Row | SMILES | solubility in polar organic solvents [1] | solubility in water [1] | stability [2]
1 | CCC(C)(NC(=O)C(CC(C)C)NC(=O)CNC(=O)C(C)(C)NC(=O)C(C)(C)NC(=O)C(C)(C)NC(=O)C(C)(C)NC(=O)C(Cc1ccccc1)NC(C)=O)C(=O)NC(C)(C)C(=O)N1CC(O)CC1C(=O)NC(CCC(N)=O)C(=O)NC(C)(C)C(=O)N1CC(O)CC1C(=O)NC(C)(C)C(=O)N1CCCC1C(=O)NC(CO)Cc1ccccc1 (stereo not drawn) [Cephaibol C, AcPhe-Aib-Aib-Aib-Aib-Gly-Leu-Iva-Aib-Hyp-Gln-Aib-Hyp-Aib-Pro-Phe-ol] (Ac-F[Aib][Aib][Aib][Aib]GL[Iva][Aib][Hyp]Q[Aib][Hyp][Aib]P[Phe(ol)]; configuration not given here) | soluble | only slightly soluble | stable
2 | CC(=O)NC(Cc1ccccc1)C(=O)NC(C)(C)C(=O)NC(C)(C)C(=O)NC(C)(C)C(=O)NC(C)(C)C(=O)NCC(=O)NC(CC(C)C)C(=O)NC(C)(C)C(=O)NC(C)(C)C(=O)N1CC(O)CC1C(=O)NC(CCC(N)=O)C(=O)NC(C)(C)C(=O)N1CC(O)CC1C(=O)NC(C)(C)C(=O)N1CCCC1C(=O)NC(CO)Cc1ccccc1 (stereo not drawn) [Cephaibol D, AcPhe-Aib-Aib-Aib-Aib-Gly-Leu-Aib-Aib-Hyp-Gln-Aib-Hyp-Aib-Pro-Phe-ol] (Ac-F[Aib][Aib][Aib][Aib]GL[Aib][Aib][Hyp]Q[Aib][Hyp][Aib]P[Phe(ol)]; configuration not given here) | soluble | only slightly soluble | stable
3 | CCC(C)(NC(=O)C(CC(C)C)NC(=O)C(C)NC(=O)C(C)(C)NC(=O)C(C)(C)NC(=O)C(C)(C)NC(=O)C(C)(C)NC(=O)C(Cc1ccccc1)NC(C)=O)C(=O)NC(C)(C)C(=O)N1CC(O)CC1C(=O)NC(CCC(N)=O)C(=O)NC(C)(CC)C(=O)N1CC(O)CC1C(=O)NC(C)(C)C(=O)N1CCCC1C(=O)NC(CO)Cc1ccccc1 (stereo not drawn) [Cephaibol A1, AcPhe-Aib-Aib-Aib-Aib-Ala-Leu-Iva-Aib-Hyp-Gln-Iva-Hyp-Aib-Pro-Phe-ol] (Ac-F[Aib][Aib][Aib][Aib]AL[Iva][Aib][Hyp]Q[Iva][Hyp][Aib]P[Phe(ol)]; configuration not given here) | soluble | only slightly soluble | stable
4 | CCC(C)C(NC(=O)C(C)(C)NC(=O)C(CCC(N)=O)NC(=O)C(C)(CC)NC(=O)C(Cc1ccccc1)NC(C)=O)C(=O)NC(C(=O)NC(C)(C)C(=O)NC(CC(C)C)C(=O)NC(C)(C)C(=O)N1CC(O)CC1C(=O)NC(CCC(N)=O)C(=O)NC(C)(C)C(=O)N1CC(O)CC1C(=O)NC(C)(C)C(=O)N1CCCC1C(=O)NC(Cc1ccccc1)C(=O)NC(CO)C(=O)O)C(C)O (stereo not drawn) [Cephaibol P, AcPhe-Iva-Gln-Aib-Ile-Thr-Aib-Leu-Aib-Hyp-Gln-Aib-Hyp-Aib-Pro-Phe-Ser] (Ac-F[Iva]Q[Aib]IT[Aib]L[Aib][Hyp]Q[Aib][Hyp][Aib]PFS-OH; configuration not given here) | soluble | only slightly soluble | stable
5 | CCC(C)C(NC(=O)C(C)(C)NC(=O)C(CCC(N)=O)NC(=O)C(C)(CC)NC(=O)C(Cc1ccccc1)NC(C)=O)C(=O)NC(C(=O)NC(C)(C)C(=O)NC(CC(C)C)C(=O)NC(C)(C)C(=O)N1CCCC1C(=O)NC(CCC(N)=O)C(=O)NC(C)(C)C(=O)N1CC(O)CC1C(=O)NC(C)(C)C(=O)N1CCCC1C(=O)NC(Cc1ccccc1)C(=O)NC(CO)C(=O)O)C(C)O (stereo not drawn) [Cephaibol Q, AcPhe-Iva-Gln-Aib-Ile-Thr-Aib-Leu-Aib-Pro-Gln-Aib-Hyp-Aib-Pro-Phe-Ser] (Ac-F[Iva]Q[Aib]IT[Aib]L[Aib]PQ[Aib][Hyp][Aib]PFS-OH; configuration not given here) | soluble | only slightly soluble | stable
6 | CCC(C)(NC(=O)C(CC(C)C)NC(=O)CNC(=O)C(C)(CC)NC(=O)C(C)(C)NC(=O)C(C)(C)NC(=O)C(C)(C)NC(=O)C(Cc1ccccc1)NC(C)=O)C(=O)NC(C)(C)C(=O)N1CC(O)CC1C(=O)NC(CCC(N)=O)C(=O)NC(C)(CC)C(=O)N1CC(O)CC1C(=O)NC(C)(C)C(=O)N1CCCC1C(=O)NC(CO)Cc1ccccc1 (stereo not drawn) [Cephaibol B, AcPhe-Aib-Aib-Aib-Iva-Gly-Leu-Iva-Aib-Hyp-Gln-Iva-Hyp-Aib-Pro-Phe-ol] (Ac-F[Aib][Aib][Aib][Iva]GL[Iva][Aib][Hyp]Q[Iva][Hyp][Aib]P[Phe(ol)]; configuration not given here) | soluble | only slightly soluble | stable
7 | CCC(C)(NC(=O)C(CCC(N)=O)NC(=O)C1CC(O)CN1C(=O)C(C)(C)NC(=O)C(C)(C)NC(=O)C(CC(C)C)NC(=O)CNC(=O)C(C)(C)NC(=O)C(C)(C)NC(=O)C(C)(C)NC(=O)C(C)(C)NC(=O)C(Cc1ccccc1)NC(C)=O)C(=O)N1CC(O)CC1C(=O)NC(C)(C)C(=O)N1CCCC1C(=O)NC(CO)Cc1ccccc1 (stereo not drawn) [Cephaibol E, AcPhe-Aib-Aib-Aib-Aib-Gly-Leu-Aib-Aib-Hyp-Gln-Iva-Hyp-Aib-Pro-Phe-ol] (Ac-F[Aib][Aib][Aib][Aib]GL[Aib][Aib][Hyp]Q[Iva][Hyp][Aib]P[Phe(ol)]; configuration not given here) | soluble | only slightly soluble | stable
